In publication PMC5979480 (International Journal of Molecular Sciences, 2018):

Assays:
[1] = system: 6-OHDA hemi-parkinsonian (PD) rats; test: Apomorphine-induced contralateral rotation; type: in vivo, Sprague-Dawley rats
Experimental: (§1) Modified surgical procedures were based on our previously described methods. Under Zoletil-Rumpun (10 mg/kg: 2 mg/kg, i.p.) anesthesia, SD rats were placed in a stereotaxic frame with the nose bar positioned 3.3 mm below the interaural line. Unilateral 6-hydroxydopamine (6-OHDA, 8 μg dissolved in 0.9% saline with 0.02% ascorbic acid) was injected for DA lesions into the left median forebrain bundle (MFB, coordinates: anteroposterior [49, 53], −4.3 mm; lateral (L), 1.6 mm from bregma; ventral (V), 8.2 mm from the dura).
Apomorphine (0.5 mg/kg in 0.1% ascorbic acid, s.c.)-induced contralateral rotations were recorded using a digital video camera to count the number of rotations for 60 min at weekly intervals up to 4 weeks post-lesion (i.e., 7, 14, 21, and 28 days post-lesion) using the same test conditions. The net number of rotations was calculated (contralateral minus ipsilateral full turns). In unilaterally 6-OHDA lesioned animals, apomorphine-induced contralateral rotation is a well-established correlate of dopamine depletion, with rotation levels seen here indicative of an 80–90% loss.

TBI injury in rats = conditions: 38.5 µg/kg/day GIP (equivalent to 7.8 nmol/kg/day); cited from earlier work
[2] = system: 6-OHDA hemi-parkinsonian (PD) rats; test: Open-field test (locomotor and anxiety-like behavior); type: in vivo, Sprague-Dawley rats; conditions: 15 nmol/kg/day s.c. pump
Experimental: as §1
In addition to its well-known motor manifestations, PD is also known to elicit neuropsychiatric disorders such as anxiety. We thus used open field measurements in the lesioned animals, as well as in intact animals, to evaluate not only general motor activity but also anxiety-related exploratory activity. Rats were first habituated to an open field Plexiglas arena (60 × 60 × 100 cm) for 10 min at day 4 and 5 post-lesion. At day 6 post-lesion, locomotor activity and anxiety-like behavior were monitored for 10 min using open field tests. The rat behaviors were recorded using an EthoVision system. Total distance, velocity, and freezing times in the open-field were considered general locomotor activities. The number and retention times in the central zone of the open field were measured as anxiety-like behaviors. The center of the open field was defined as a 30 × 30 cm^2 in the geometric center of the arena.

[3] = in vivo; cited from earlier work

| Compound | Sensitization (progressive increase in apomorphine-induced rotations with repeated weekly tests) ([1]; 15 nmol/kg/day GIP, weekly tests up to 4 weeks post-lesion, time effect GIP p = 0.940) | Apomorphine-induced rotation, GIP vs saline ([1]; 15 nmol/kg/day s.c. pump for 2 weeks from 2 days pre-lesion, apomorphine 0.5 mg/kg s.c., 60 min, week 3 (p = 0.042) and week 4 (p = 0.019) post-6-OHDA, saline n = 9, GIP n = 10) | Initial levels of apomorphine-induced rotations ([1]; apomorphine 0.5 mg/kg, both lesioned groups (saline and GIP 15 nmol/kg/day)) | Effect on TBI injury (TBI injury in rats) | Open-field locomotor behavior (total distance moved, velocity, freezing time) ([2]; 10 min open field post-lesion, GIP vs saline p = 0.031, 0.021, 0.034, saline n = 8, GIP15 n = 5, naïve n = 6) | Number of entries into the central zone, GIP vs saline ([2]; 10 min open field, p = 0.008) | Retention times in the central zone, GIP vs saline ([2]; 10 min open field, p = 0.218) | Share of plasma levels reaching the brain [3] |
| --- | --- | --- | --- | --- | --- | --- | --- | --- |
| CC[C@H](C)[C@H](NC(=O)[C@H](CO)NC(=O)[C@H](Cc1ccc(O)cc1)NC(=O)[C@H](CC(=O)O)NC(=O)[C@H](CO)NC(=O)[C@@H](NC(=O)[C@H](Cc1ccccc1)NC(=O)[C@@H](NC(=O)CNC(=O)[C@H](CCC(=O)O)NC(=O)[C@H](C)NC(=O)[C@@H](N)Cc1ccc(O)cc1)[C@@H](C)O)[C@@H](C)CC)C(=O)N[C@@H](C)C(=O)N[C@@H](CCSC)C(=O)N[C@@H](CC(=O)O)C(=O)N[C@@H](CCCCN)C(=O)N[C@H](C(=O)N[C@@H](Cc1c[nH]cn1)C(=O)N[C@@H](CCC(N)=O)C(=O)N[C@@H](CCC(N)=O)C(=O)N[C@@H](CC(=O)O)C(=O)N[C@@H](Cc1ccccc1)C(=O)N[C@H](C(=O)N[C@@H](CC(N)=O)C(=O)N[C@@H](Cc1c[nH]c2ccccc12)C(=O)N[C@@H](CC(C)C)C(=O)N[C@@H](CC(C)C)C(=O)N[C@@H](C)C(=O)N[C@@H](CCC(N)=O)C(=O)N[C@@H](CCCCN)C(=O)NCC(=O)N[C@@H](CCCCN)C(=O)N[C@@H](CCCCN)C(=O)N[C@@H](CC(N)=O)C(=O)N[C@@H](CC(=O)O)C(=O)N[C@@H](Cc1c[nH]c2ccccc12)C(=O)N[C@@H](CCCCN)C(=O)N[C@@H](Cc1c[nH]cn1)C(=O)N[C@@H](CC(N)=O)C(=O)N[C@H](C(=O)N[C@H](C(=O)N[C@@H](CCC(N)=O)C(=O)O)[C@@H](C)O)[C@@H](C)CC)C(C)C)[C@@H](C)CC [GIP, glucose-dependent insulinotropic polypeptide] | not seen | statistically significant differences | over 400 | effectively mitigated TBI injury | improved locomotor behavior to a level similar to the naïve group | significantly higher | trended to improve this deficit |  |
| Exenatide |  |  |  |  |  |  |  | ~2% |
